{
  "source": "patent US9428732B2",
  "about": "“Compositions and methods for differentiating pluripotent stem cells into primitive blood cells and uses thereof” (Primorigen Biosciences, Inc., priority 2011, dated 2016)",
  "system": "pluripotent stem cell differentiation cultures",
  "assay": "Quantitative gene expression analysis during differentiation (Day 0, 4, 8, 12, 15)",
  "assay_type": "cell-based, human",
  "details": "for expression of SCL: FIG. 6M; for expression of FOXF1: FIG. 6E; for expression of FOXC1: FIG. 6F",
  "from_the_text": "RNA from the pluripotent stem cell differentiation cultures was harvested at multiple time points corresponding to stages of development from pluripotent stem cells to hematopoietic lineages during in vitro culture. Cells were lysed using Trizol (Life Technologies, Carlsbad Calif.), and RNA was isolated according to the manufacturer's specifications. A cDNA library was reverse transcribed by the High Capacity RNA-to-cDNA Kit from Applied Biosystems (Life Technologies, Carlsbad, Calif.). PCR products were amplified for 40 cycles using primers designed for the gene of interest.\nGene expression studies were carried out to determine expression of key genes for the major divergences in the pathway from iPS to HSC. Briefly, RNA from the differentiation cultures was harvested at multiple time points (Day 0, 4, 8, 12, 15), corresponding to stages of development during in vitro culture and differentiation of pluripotent stem cells to hematopoietic lineages using Differentiation Medium 1. Cells were lysed using Trizol (Life Technologies, Carlsbad Calif.) and RNA was isolated according to manufacturer's specifications. A cDNA library was reverse transcribed using the RNA-to-cDNA Kit from Applied Biosystems (Life Technologies, Carlscad, Calif.). PCR products were amplified using appropriate primers designed for the genes of interest for 40 cycles.\nTo understand how RA-signaling inhibition with DEAB may lead to increased output of the most primitive blood cells (phenotypic HSCs: CD45+, CD43+, CD34+, CD38−, CD90+, CD45RA−) from pluripotent stem cells without an increase in the total blood (mature cells and progenitors), we performed quantitative gene expression analyses for key development markers at various time points during the differentiation protocol. As the developmental marker genes we surveyed are not known to be direct targets of RA signaling, we can expect the marker gene expression levels to correlate to the cell numbers in culture.",
  "key": {"[1]": {"details": "DEAB vs DMSO, early time points"}},
  "data": [
    {"smiles": "CCN(CC)c1ccc(C=O)cc1", "note": "[DEAB, 4-diethylaminobenzaldehyde]", "values": [
      {"measurement": "expression of SCL", "setting": "DEAB compared to DMSO, Day 15", "result": "increased SCL expression"},
      {"measurement": "expression of SCL", "setting": "DEAB vs DMSO, Day 8-12", "result": "Increased SCL expression with DMSO compared to DEAB"},
      {"measurement": "expression of FOXF1", "setting": "DEAB vs DMSO, Day 8 onward", "result": "comparable"},
      {"measurement": "expression of RUNX1 (definitive hematopoietic cell marker)", "setting": "DEAB vs DMSO, Day 12-15, FIG. 6I", "result": "increased expression"},
      {"measurement": "expression of cardiogenic lateral plate mesoderm marker NKX2.5", "setting": "DEAB vs DMSO, Day 12 onward, FIG. 6G", "result": "reduced expression"},
      {"measurement": "expression of FOXC1", "setting": "DEAB vs DMSO, Days 6-12", "result": "significantly reduced"},
      {"measurement": "increase in expression of primitive streak mesoderm marker MIXL1", "setting": "DEAB vs DMSO, FIG. 6C", "result": 20, "unit": "%"},
      {"measurement": "expression of endoderm specific marker SOX17", "setting": "DEAB vs DMSO, FIG. 6D", "result": "significantly reduced"},
      {"measurement": "CD31 expression (primitive wave endothelial cells)", "setting": "DEAB vs DMSO, FIG. 6L", "result": "reduced"},
      {"measurement": "expression of ectoderm and neuroectoderm marker PAX6", "setting": "DEAB vs DMSO, early time point, FIG. 6A", "result": "reduced expression"},
      {"measurement": "expression of FOXF1", "setting": "[1]", "result": "elevated levels"},
      {"measurement": "expression of FOXC1", "setting": "[1]", "result": "elevated levels"},
      {"measurement": "expression of mesoderm marker Brachyury", "setting": "DEAB vs DMSO, first days of differentiation, FIG. 6B", "result": "significantly increased"},
      {"measurement": "expression of PAX6", "setting": "DEAB vs DMSO, later time points, FIG. 6A", "result": "later equalized"},
      {"measurement": "expression of FLK1", "setting": "DEAB, Day 4", "result": "high levels"},
      {"measurement": "expression of RARa", "setting": "DEAB, Day 8, FIG. 6N", "result": "reduced levels"},
      {"measurement": "expression of RARb", "setting": "DEAB, Day 8, FIG. 6O", "result": "reduced levels"},
      {"measurement": "expression of APLNR", "setting": "DEAB, Day 12, FIG. 6H", "result": "expressed highly"},
      {"measurement": "expression of PDGFRA", "setting": "DEAB, Day 12, FIG. 6J", "result": "downregulated"},
      {"measurement": "expression of FLK1", "setting": "DEAB, Days 12-15", "result": "increased"},
      {"measurement": "expression of RA target CD38 by PCR", "setting": "DEAB, FIG. 6P", "result": "reduction"}
    ]}
  ]
}
